The target of this test is T1, human PAR2 (Homo sapiens, UniProt P55085).
T1 construct: expressed in transfected cells; host or cells: NIH3T3 cells, transiently transfected; receptor in pSI-derived mammalian expression vector
T1 sequence (P55085 26-397): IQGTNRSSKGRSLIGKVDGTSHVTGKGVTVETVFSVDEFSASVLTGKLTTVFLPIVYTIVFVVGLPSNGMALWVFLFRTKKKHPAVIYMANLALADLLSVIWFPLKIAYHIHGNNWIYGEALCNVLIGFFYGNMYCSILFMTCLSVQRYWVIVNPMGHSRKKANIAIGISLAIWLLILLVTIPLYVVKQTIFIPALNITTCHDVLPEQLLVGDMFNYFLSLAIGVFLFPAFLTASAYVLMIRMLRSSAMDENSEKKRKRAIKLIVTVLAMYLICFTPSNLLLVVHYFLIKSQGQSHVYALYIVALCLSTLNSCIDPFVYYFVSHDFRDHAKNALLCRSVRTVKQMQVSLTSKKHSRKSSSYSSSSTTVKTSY
Kind of test: Receptor Selection and Amplification Technology (R-SAT) functional receptor assay. It is filed as cell-based. Particulars: for EC50: NIH3T3 cells transfected with PAR2, negative log of EC50 (molar); for Emax: percent maximum activation relative to the ligand SLIGRL, read-out: % Efficacy. How it is done:
The functional receptor assay, Receptor Selection and Amplification Technology (R-SAT), was used to investigate the pharmacological properties of known and novel PAR2 compounds. R-SAT is disclosed in U.S. Pat. Nos. 5,707,798, 5,912,132, and 5,955,281, all of which are hereby incorporated herein by reference in their entirety, including any drawings.
Briefly, NIH3T3 cells were grown in 96 well tissue culture plates to 70-80% confluence. Cells were transfected for 16-20 h with plasmid DNAs using Polyfect (Qiagen Inc.) using the manufacturer's protocols. R-SATs were generally performed with 4 ng/well of receptor and 20 ng/well of β-galactosidase plasmid DNA. All receptor constructs used were in the pSI-derived mammalian expression vector (Promega Inc). The PAR2 gene was amplified by PCR from genomic DNA using oligodeoxynucleotide primers based on the published sequence (GenBank Accession # Z49993 and Z49994). For large-scale transfections, cells were transfected for 16-20 h, then trypsinized and frozen in DMSO. Frozen cells were later thawed, plated at ˜10,000 cells per well of a 96 half-area well plate that contained drug. With both methods, cells were then grown in a humidified atmosphere with 5% ambient CO2 for five days. Media was then removed from the plates and marker gene activity was measured by the addition of the β-galactosidase substrate o-nitrophenyl β-D-galactopyranoside (ONPG) in PBS with 0.5% NP-40. The resulting colorimetric reaction was measured using a spectrophotometric plate reader (Titertek Inc.) at 420 nm. All data was analyzed using the XLFit (IDBSm) computer program. Efficacy is the percent maximum activation compared to activation by a control compound (SLIGRLm). pEC50 is the negative of the log(EC50), where EC50 is the calculated as a molar concentration (M) that produces 50% maximal activation.
These experiments provide a molecular profile, or fingerprint, for each of these agents at the human PAR2.
Efficacy is relative to the ligand SLIGRL.

One may read the EC50 as the midpoint of the concentration-response curve. Read a high EC50 as weaker potency. Turning to `CC(=NNC(=O)C1C(=O)NCC1c1ccccc1)c1cccs1` (mixture of isomers) [Compound 5, 2-Oxo-4-phenyl-3-pyrrolidinecarboxylic acid [1-(thiophen-2-yl)-(E/Z)-ethylidene]-hydrazide], it took 1580 nM to reach a half-maximal effect (EC50) and the Emax worked out at 52%.
With `CC(=NNC(=O)C1C(=O)NCC1c1ccccc1)c1cc(Br)cs1` (mixture of isomers) [Compound 6, 2-Oxo-4-phenyl-3-pyrrolidinecarboxylic acid [1-(4-bromo-thiophen-2-yl)-(E/Z)-ethylidene]-hydrazide], it took 398 nM to reach a half-maximal effect (EC50) and the Emax worked out at 109%.
The matching figures for `CC(=NNC(=O)C1C(=O)NCC1c1ccccc1)c1cncc(Br)c1` (mixture of isomers) [Compound 7, 2-Oxo-4-phenyl-3-pyrrolidinecarboxylic acid [1-(5-bromo-pyridine-3-yl)-(E/Z)-ethylidene]-hydrazide]: 794 nM and 106%.
The corresponding values for `CC(=NNC(=O)C1C(=O)NCC1c1ccccc1)c1cccc(Br)c1` (mixture of isomers) [Compound 3, 2-Oxo-4-phenyl-3-pyrrolidinecarboxylic acid [1-(3-bromo-phenyl)-(E/Z)-ethylidene]-hydrazide] are 39.8 nM and 134%.
As to `CC(=NNC(=O)C1C(=O)NCC1c1ccccc1)c1ccc(Br)s1` (mixture of isomers) [Compound 4, 2-Oxo-4-phenyl-3-pyrrolidinecarboxylic acid [1-(5-bromo-thiophen-2-yl)-(E/Z)-ethylidene]-hydrazide], the EC50 is 631 nM and the Emax was found to be 87%.

The values are drawn from patent US20070123508A1, “PAR2-modulating compounds and their use” (priority 2005, published 2007).
